“And” between values parts separate entries of the source, which are not always exact repeats. Identical values can stand only once. “Also recorded” adds a separate entry of the source. Like-named read-outs stand apart in the source and are kept apart here.
Legend:
[1] = target: T1, RbmC2 β-prism domain (Vibrio cholerae, UniProt Q9KTH2); assay: biochemical; format: binding; conditions: RbmC2 β-prism affinity
[2] = target: T2, VCC β-prism lectin domain (Vibrio cholerae serotype O1, UniProt P09545); assay: biochemical; format: binding
[3] = target: RbmC1 β-prism domain (Vibrio cholerae, UniProt Q9KTH2); assay: biochemical; format: binding
[4] = target: T2, VCC β-prism lectin domain; assay: biochemical; format: binding; remark: listed apart in the source
[5] = target: T1, RbmC2 β-prism domain; assay: biochemical; format: binding
[6] = target: T2, VCC β-prism lectin domain; conditions: read-out: VCC β-prism affinity; cited from earlier work
[7] = target: RbmC2-GFPUV fusion (Vibrio cholerae El Tor strain N16961); assay: ITC
[8] = target: RbmC1-GFPUV fusion (Vibrio cholerae El Tor strain N16961); assay: ITC

Work on CC(=O)N[C@H]1[C@H](O[C@H]2[C@H](O)[C@@H](NC(C)=O)C(O)O[C@@H]2CO)O[C@H](CO)[C@@H](O[C@@H]2O[C@H](CO[C@H]3O[C@H](CO)[C@@H](O)[C@H](O)[C@@H]3O[C@@H]3O[C@H](CO)[C@@H](O)[C@H](O)[C@H]3NC(C)=O)[C@@H](O)[C@H](O[C@H]3O[C@H](CO)[C@@H](O)[C@H](O)[C@@H]3O[C@@H]3O[C@H](CO)[C@@H](O)[C@H](O)[C@H]3NC(C)=O)[C@@H]2O)[C@@H]1O (some centres unmarked) [NGA2, GlcNAcβ1-2Manα1-6(GlcNAcβ1-2Manα1–3)Manβ1-4GlcNAcβ1-4GlcNAc] yielded a Kd [1] of 0.0015 ± 0.0005 µM and a Kd [2] of 0.2 µM.

With CC(=O)N[C@H]1[C@H](O[C@@H]2[C@@H](OC[C@H]3OC(O)[C@@H](O)[C@@H](O[C@H]4O[C@H](CO)[C@@H](O)[C@H](O)[C@@H]4O[C@@H]4O[C@H](CO)[C@@H](O)[C@H](O)[C@H]4NC(C)=O)[C@@H]3O)O[C@H](CO)[C@@H](O)[C@@H]2O)O[C@H](CO)[C@@H](O)[C@@H]1O (some centres unmarked) [Pentasaccharide, N-linked core pentasaccharide] the Kd [1] was 0.0011 µM and 0.0015 µM.

With CC(=O)N[C@H]1C(O)O[C@H](CO)[C@@H](O[C@@H]2O[C@H](CO)[C@H](O)[C@H](O)[C@H]2O)[C@@H]1O (stereo partly drawn) [LacNAc, N-acetyl-D-lactosamine] the “RbmC1 β-prism binding” value [3] was “Did not bind; also recorded: unable to observe binding”, the “VCC β-prism binding” value [4] was “Did not bind; also recorded: unable to detect binding” and the “RbmC2 β-prism binding” value [5] was “Did not bind; also recorded: unable to observe binding”.

Molecule OC[C@H]1O[C@H](OC[C@H]2OC(O)[C@@H](O)[C@@H](O[C@H]3O[C@H](CO)[C@@H](O)[C@H](O)[C@@H]3O)[C@@H]2O)[C@@H](O)[C@@H](O)[C@@H]1O (stereo partly drawn) [Mannotriose, 1,3-α-1,6-α-D-mannotriose] has a Kd ([3]; RbmC1 β-prism affinity) of 0.6 µM, a Kd [4] of 229 µM and a Kd ([5]; RbmC2 β-prism affinity) of 4.1 µM.

For CO[C@H]1O[C@H](CO)[C@@H](O)[C@H](O)[C@@H]1O [Me-α-mannose, methyl α-D-mannopyranoside], the Kd ([3]; RbmC1 β-prism affinity) is given as 503 µM and 179 µM, the Kd ([5]; RbmC2 β-prism affinity) is given as 179 µM and 503 µM and the Kd [6] is given as 2700 µM.

Work on Asialofetuin yielded a Kd ([3]; read-out: RbmC1 β-prism affinity (apparent)) of 0.0159 µM and a Kd ([5]; read-out: RbmC2 β-prism affinity (apparent)) of 0.0184 µM.

CC(=O)N[C@H]1[C@H](O[C@@H]2C(O)O[C@H](CO)[C@@H](O)[C@@H]2O)O[C@H](CO)[C@@H](O)[C@@H]1O (stereo partly drawn) [GlcNAc-Man, N-acetylglucosaminyl-β-1,2-mannose] gave a Kd ([5]; RbmC2 β-prism affinity) of 159 µM.

B1: bovine asialofetuin (natural protein)
chain: IPLDPVAGYKEPACDDPDTEQAALAAVDYINKHLPRGYKHTLNQIDSVKVWPRRPTGEVYDIEIDTLETTCHVLDPTPLANCSVRQQTQHAVEGDCDIHVLKQDGQFSVLFTKCDSSPDSAEDVRKLCPDCPLLAPLNDSRVVHAVEVALATFNAESNGSYLQLVEISRAQFVPLPVSVSVEFAVAATDCIAKEVVDPTKCNLLAEKQYGFCKGSVIQKALGGEDVRVTCTLFQTQPVIPQPQPDGAEAEAPSAVPDAAGPTPSAAGPPVASVVVGPSVVAVPLPLHRAHYDLRHTFSGVASVESSSGEAFHVGKTPIVGQPSIPGGPVRLCPGRIRYFKI
modifications: three glycosylation sites occupied by heterogeneous mixtures of bi- and tri-antennary glycans (asialo form)
Work on B1 yielded a Kd [7] of 0.0184 µM and a Kd [8] of 0.0159 µM.
